The values that follow come from patent publication US6589914B2, “Dihalopropene compounds, insecticidal/acaridcidal agents containing same, and intermediates for their production” (Sumitomo Chemical Company, Limited, priority 1994, dated 2003).

One series deals with Tetranychus urticae Koch. Kind of series: Test against Tetranychus urticae Koch (spray and soil drench on potted bean). The series is classed as in vivo. The conditions noted are these: active ingredient at 500 ppm, 15 ml sprayed per pot plus 2 ml soil drench, after 8 days. The method, then: Ten female adults of Tetranychus urticae Koch per one leaf were allowed to parasitize to a potting bean at the primary leaf stage harvested for 7 days after seeding, and these pots were placed in a thermostated room at 25° C. After 6 days, a chemical solution containing an active ingredient at 500 ppm, which had been prepared by diluting with water an emulsifiable concentrate of the test compound obtained according to Formulation Example 1, was sprayed at a volume of 15 ml over each pot on a turntable. At the same time, 2 ml of the same solution was drenched in the soil. After 8 days, the degree of damage on the respective plants caused by Tetranychus urticae Koch was examined. The effects were determined according to the following criteria:
−: Damage is scarcely observed.
+: Damage is slightly observed.
++: Damage is observed at the same level as in the non-treated field.

The test system of another series is Heliothis virescens. Kind of series: Insecticidal test against Heliothis virescens (treated artificial diet). The series is classed as in vivo. The conditions noted are these: 144 h. The method, then: A dilution containing an active ingredient at 100 ppm, which had been prepared by diluting with water an emulsifiable concentrate of the test compound obtained according to Formulation Example 1, was incorporated at a volume of 0.2 ml in an artificial diet. A second-instar larva of H. virescens was given the diet and bred in a plastic vessel. Ten insects were used by each treatment. After 6 days, the mortality was determined.

Another series has as its system Plutella xylostella. Kind of series: Insecticidal test against Plutella xylostella (spray on potted cabbage). The series is classed as in vivo. The conditions noted are these: 96 h. As to the method:
A chemical solution containing an active ingredient at 50 ppm, which had been prepared by diluting an emulsifiable concentrate of the test compound obtained according to Formulation Example 1 with water containing spreading agent RINOU (Nihon Nouyaku K.K.) to a degree such that the spreading agent had been 1000-fold diluted, was sprayed at a volume 25 ml over each pot of a potting cabbage at the five leaf stage. The treated plants were air dried, on which ten third-instar larvae of Plutella xylostella were set free. After 4 days, the mortality was determined.

In a further series the test system is Spodoptera litura. The series is described as follows: Insecticidal test against Spodoptera litura (treated artificial diet). The series is classed as in vivo. The conditions noted are these: 144 h, active ingredient at 500 ppm, 2 ml in 13 g artificial diet, fourth-instar larvae, after 6 days. The method, then:
A 200-fold dilution containing an active ingredient at 500 ppm, which had been prepared by diluting with water an emulsifiable concentrate of the test compound obtained according to Formulation Example 1, was absorbed at a volume of 2 ml in 13 g of an artificial diet for Spodoptera litura, which had been prepared in a polyethylene cup having a diameter of 11 cm. Ten fourth-instar larvae of Spodoptera litura were set free in the cup. After 6 days, the survival of larvae was examined to determine the mortality. The test was conducted in duplicate.

The mark [1] stands for this setting: active ingredient at 100 ppm, 0.2 ml in artificial diet, second-instar larva, after 6 days, read-out: mortality.
Setting [2] is: active ingredient at 50 ppm, 25 ml sprayed per pot of cabbage, third-instar larvae, after 4 days, read-out: mortality.

For orientation: melting point means the temperature of the solid-liquid transition. By mortality is commonly meant the share of the test organisms that died.

Each structure is given as a SMILES string. Where two headings read alike, the source gives them in different places. Where only a bound is given, the exact number is not on record here.

As to `ClC(Cl)=CCOc1cc(Cl)c(OCCc2nc3ccccc3o2)c(Cl)c1` [Compound 32, 3,5-Dichloro-4-(2-(2-benzoxazolyl)ethoxy)-1-(3,3-dichloro-2-propenyloxy)benzene], the melting point is 61.2 °C. Moreover, in the series on Tetranychus urticae Koch, the “degree of damage on the plants caused by Tetranychus urticae Koch” value (“degree of damage on the plants caused” below) was ““−” or “+””. Regarding `FC(F)(F)c1ccc(OCCCCOc2c(Cl)cc(OCC=C(Cl)Cl)cc2Cl)nc1` [Compound 42, 3,5-Dichloro-4-(4-(5-trifluoromethyl-2-pyridyloxy)butyloxy)-1-(3,3-dichloro-2-propenyloxy)benzene], the mortality at 100 ppm in the series with Heliothis virescens (setting [1]) is not below 80%. Further, the mortality at 50 ppm in the series on Plutella xylostella (setting [2]) was not below 80%. In turn, `CN1C=CSC1CCOc1c(Cl)cc(OCC=C(Cl)Cl)cc1Cl` (stereo not shown) [Compound 11, 3,5-Dichloro-4-(2-(3-methylthiazol-2-yl)ethoxy)-1-(3,3-dichloro-2-propenyloxy)benzene] gave a melting point of 30.4 °C.

Compound `O=C(OCCCOc1c(Cl)cc(OCC=C(Cl)Cl)cc1Cl)c1cnc2ccccc2c1` [Compound 28, 3-(2,6-Dichloro-4-(3,3-dichloro-2-propenyloxy)phenoxy)propyl 3-quinolinate] gave a melting point of 92.3 °C.

For the compound `ClC(Cl)=CCOc1cc(Cl)c(OCc2cccs2)c(Cl)c1` [Compound 6, 3,5-Dichloro-4-(2-thienylmethyloxy)-1-(3,3-dichloro-2-propenyloxy)benzene], the melting point came out at 44.6 °C. `ClC(Cl)=CCOc1cc(Cl)c(OCCc2ccsc2)c(Cl)c1` [Compound 14, 3,5-Dichloro-4-(2-(3-thienyl)ethoxy)-1-(3,3-dichloro-2-propenyloxy)benzene]: the mortality at 500 ppm in the series on Spodoptera litura is not below 80%.

With `ClC(Cl)=CCOc1cc(Cl)c(NCCCOc2ccccn2)c(Cl)c1` [Compound 71, 3,5-Dichloro-4-(3-(2-pyridyloxy)propylamino)-1-(3,3-dichloro-2-propenyloxy)benzene], the melting point was 76.2 °C.

Turning to `ClC(Cl)=CCOc1cc(Cl)c(OCCc2cccs2)c(Cl)c1` [Compound 10, 3,5-Dichloro-4-(2-(2-thienyl)ethoxy)-1-(3,3-dichloro-2-propenyloxy)benzene], the “degree of damage on the plants caused” value in the series on Tetranychus urticae Koch is given as ““−” or “+””. For the compound `ClC(Cl)=CCOc1cc(Cl)c(OCc2ccc(Cl)nc2Cl)c(Cl)c1` [Compound 2, 3,5-Dichloro-4-(2,6-dichloro-3-pyridylmethyloxy)-1-(3,3-dichloro-2-propenyloxy)benzene], the mortality at 500 ppm with Spodoptera litura was not below 80%. `ClC(Cl)=CCOc1cc(Cl)c(OCc2cccnc2)c(Cl)c1` [Compound 8, 3,5-Dichloro-4-(3-pyridylmethyloxy)-1-(3,3-dichloro-2-propenyloxy)benzene] displayed a melting point of 105.9 °C. Regarding `CC(C)(COc1c(Cl)cc(OCC=C(Cl)Cl)cc1Cl)Oc1cccc(Cl)n1` [Compound 33, 3,5-Dichloro-4-(2-methyl-2-(2-(6-chloro)pyridyloxy)propyloxy)-1-(3,3-dichloro-2-propenyloxy)benzene], in the series with Tetranychus urticae Koch, the “degree of damage on the plants caused” value was ““−” or “+””. `ClC(Cl)=CCOc1cc(Cl)c(OCCSc2ccncc2)c(Cl)c1` [Compound 19, 3,5-Dichloro-4-(2-(4-pyridylthio)ethoxy)-1-(3,3-dichloro-2-propenyloxy)benzene] showed a melting point of 74.7 °C. With `ClC(Cl)=CCOc1cc(Cl)c(OCCCSc2ccccn2)c(Cl)c1` [Compound 30, 3,5-Dichloro-4-(3-(2-pyridylthio)propyloxy)-1-(3,3-dichloro-2-propenyloxy)benzene], the “degree of damage on the plants caused” value in the series on Tetranychus urticae Koch is ““−” or “+””.

Regarding `ClC(Cl)=CCOc1cc(Cl)c(OCc2ccc(Cl)nc2)c(Cl)c1` [Compound 1, 3,5-Dichloro-4-(6-chloro-3-pyridylmethyloxy)-1-(3,3-dichloro-2-propenyloxy)benzene], in the series with Spodoptera litura, the mortality at 500 ppm was not below 80%. Besides, the “degree of damage on the plants caused” value with Tetranychus urticae Koch is reported as ““−” or “+””. For `ClC(Cl)=CCOc1cc(Cl)c(OCc2ccncc2)c(Cl)c1` [Compound 9, 3,5-Dichloro-4-(4-pyridylmethyloxy)-1-(3,3-dichloro-2-propenyloxy)benzene], the melting point worked out at 74 °C.

`FC(F)(F)c1ccc(OCCCOc2c(Cl)cc(OCC=C(Cl)Cl)cc2Cl)nc1` [Compound 36, 3,5-Dichloro-4-(3-(5-trifluoromethyl-2-pyridyloxy)propyloxy)-1-(3,3-dichloro-2-propenyloxy)benzene] came in with a mortality at 100 ppm with Heliothis virescens not below 80%. For the same compound, the mortality at 50 ppm in the series with Plutella xylostella is not below 80%. On to `FC(F)(F)c1cnc(OCCCOc2c(Cl)cc(OCC=C(Cl)Cl)cc2Cl)c(Cl)c1` [Compound 37, 3,5-Dichloro-4-(3-(3-chloro-5-trifluoromethyl-2-pyridyloxy)propyloxy)-1-(3,3-dichloro-2-propenyloxy)benzene], for which, in the series on Plutella xylostella (setting [2]), the mortality at 50 ppm is not below 80%. In the case of `ClC(Cl)=CCOc1cc(Cl)c(OCc2ccccn2)c(Cl)c1` [Compound 5, 3,5-Dichloro-4-(2-pyridylmethyloxy)-1-(3,3-dichloro-2-propenyloxy)benzene], the melting point is 48.2 °C. `ClC(Cl)=CCOc1cc(Cl)c(OCCCc2cccnc2)c(Cl)c1` [Compound 20, 3,5-Dichloro-4-(3-(3-pyridyl)propyloxy)-1-(3,3-dichloro-2-propenyloxy)benzene] gave a melting point of 48.3 °C.

In the case of `ClC(Cl)=CCOc1cc(Cl)c(OCc2ccco2)c(Cl)c1` [Compound 7, 3,5-Dichloro-4-(2-furanylmethyloxy)-1-(3,3-dichloro-2-propenyloxy)benzene], the melting point worked out at 46 °C. Moreover, in the series with Tetranychus urticae Koch, the “degree of damage on the plants caused” value is recorded as ““−” or “+””. Take `FC(F)(F)c1ccc(OCCCCCOc2c(Cl)cc(OCC=C(Cl)Cl)cc2Cl)nc1` [Compound 43, 3,5-Dichloro-4-(5-(5-trifluoromethyl-2-pyridyloxy)pentyloxy)-1-(3,3-dichloro-2-propenyloxy)benzene]: the mortality at 100 ppm in the series on Heliothis virescens (setting [1]) is not below 80%. The compound `ClC(Cl)=CCOc1cc(Cl)c(OCCCSc2nc3ccccc3[nH]2)c(Cl)c1` [Compound 39, 3,5-Dichloro-4-(3-(2-benzimidazolylthio)propyloxy)-1-(3,3-dichloro-2-propenyloxy)benzene] returned a melting point of 120.7 °C. In the case of `ClC(Cl)=CCOc1cc(Cl)c(OCCCc2ccncc2)c(Cl)c1` [Compound 15, 3,5-Dichloro-4-(3-(4-pyridyl)propyloxy)-1-(3,3-dichloro-2-propenyloxy)benzene], the “degree of damage on the plants caused” value with Tetranychus urticae Koch is given as ““−” or “+””.
